This note sets out measurements from patent publication US20250011299A1, “PYRIDAZINYL AMINO DERIVATIVES AS ALK5 INHIBITORS” (CHIESI FARMACEUTICI S.P.A., priority 2021, published 2025).

This assay has as its target T1, human ALK5 (Homo sapiens, UniProt P36897).
T1 construct: human ALK5 (recombinant TGF β1 N-term GST-tagged, 80-end); GST (N); purchased
T1 sequence (P36897 80-503 limits assumed): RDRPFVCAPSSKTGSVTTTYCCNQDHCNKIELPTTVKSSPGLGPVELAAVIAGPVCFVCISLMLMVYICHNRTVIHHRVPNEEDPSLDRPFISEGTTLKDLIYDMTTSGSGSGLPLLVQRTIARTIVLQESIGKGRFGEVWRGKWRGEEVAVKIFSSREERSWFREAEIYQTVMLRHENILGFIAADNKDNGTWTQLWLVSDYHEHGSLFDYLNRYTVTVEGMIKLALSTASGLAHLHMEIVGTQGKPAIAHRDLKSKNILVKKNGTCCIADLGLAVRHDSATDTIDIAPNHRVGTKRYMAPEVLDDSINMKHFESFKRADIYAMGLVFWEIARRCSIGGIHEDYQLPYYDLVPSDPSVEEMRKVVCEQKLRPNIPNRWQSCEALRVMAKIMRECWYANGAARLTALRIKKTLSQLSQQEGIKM
As to the kind of experiment: ADP-GLO Kinases assay of ALK5 enzymatic activity. In kind it is biochemical. The note with it: purified recombinant human ALK5, TGFβ1 peptide substrate, pIC50 converted to pKi by Cheng-Prusoff, high ATP protocol (15 μM) for very potent compounds, 25° C. How it is done: The enzymatic activity of compounds of the present invention was monitored measuring the formation of ADP using the ADP-GLO Kinases assay. Following the incubation of the purified enzyme, a substrate and ATP, the produced ADP was converted into ATP, which in turn was converted into light by Ultra-Glo Luciferase. The luminescent signal positively correlated with ADP amount and kinase activity. […] Compound and ALK5 kinase were mixed and incubated for 15 mins. […] After an incubation of 120 min, the reaction was stopped, and ADP production detected with ADP-Glo kit according to manufacturer's indications. […] After an incubation of 60 min, the kinase reaction was stopped, and ADP production detected with ADP-Glo kit according to manufacturer's indications. All reaction and incubation steps were performed at 25° C. and the assays were performed in 384-well format and validated using a selection of reference compounds tested in 11-point concentration-response curve. […] Results were expressed as pIC50 (negative logarithm of IC50) and subsequently converted to pKi (negative logarithm of […]) using the Cheng-Prusoff equation. The higher the value of pKi, the greater the inhibition of ALK5 activity.
(In general: ADP-Glo first removes unused ATP, then detects ADP through luciferase.)
Turning to `COC(=O)NCCN1CCN(CCC(=O)Nc2cc(Nc3cc(-c4cc(Cl)ccc4F)nnc3SC)ccn2)CC1` [Example 21, methyl N-[2-(4-{2-[(4-{[6-(5-chloro-2-fluorophenyl)-3-(methylsulfanyl)pyridazin-4-yl]amino}pyridin-2-yl)carbamoyl]ethyl}piperazin-1-yl)ethyl]carbamate], the Ki was at most 0.1 nM.

Turning to `CN1CCN([C@H]2C[C@@H](C(=O)Nc3cc(Nc4cc(-c5cc(Cl)ccc5F)nnc4SC(C)(C)CO)ccn3)C2)CC1` [Example 94, Cis N-(4-{[6-(5-chloro-2-fluorophenyl)-3-[(1-hydroxy-2-methylpropan-2-yl)sulfanyl]pyridazin-4-yl]amino}pyridin-2-yl)-3-(4-methylpiperazin-1-yl)cyclobutane-1-carboxamide], the Ki was at most 0.1 nM.

As for `CN1CCN([C@H]2C[C@@H](C(=O)Nc3cc(Nc4cc(-c5cc(Cl)ccc5F)nnc4SCCO)ccn3)C2)CC1` [Example 83, Cis N-(4-{[6-(5-chloro-2-fluorophenyl)-3-[(2-hydroxyethyl)sulfanyl]pyridazin-4-yl]amino}pyridin-2-yl)-3-(4-methylpiperazin-1-yl)cyclobutane-1-carboxamide], the Ki was at most 0.1 nM.

Consider `CS(=O)(=O)NCCOc1nnc(-c2cc(Cl)ccc2F)cc1Nc1ccnc(N)c1` [Example 45, N-[2-({4-[(2-aminopyridin-4-yl)amino]-6-(5-chloro-2-fluorophenyl)pyridazin-3-yl}oxy)ethyl]methanesulfonamide], for which the Ki is at most 0.1 nM.

On to `CN1CCN(CCC(=O)Nc2cc(Nc3cc(-c4cc(Cl)ccc4F)nnc3N(C)[C@H]3CCOC3)ccn2)CC1` (single isomer, unassigned) [Example 106, N-(4-{[6-(5-chloro-2-fluorophenyl)-3-[methyl(oxolan-3-yl)amino]pyridazin-4-yl]amino}pyridin-2-yl)-3-(4-methylpiperazin-1-yl)propanamide], for which the Ki was 0.126 to 0.316 nM.

For the molecule `CN1CCN([C@H]2C[C@H](C(=O)Nc3cc(Nc4cc(-c5cc(Cl)ccc5F)nnc4OC4CCOC4)ccn3)C2)CC1` (single isomer, unassigned) [Example 114, N-(4-{[6-(5-chloro-2-fluorophenyl)-3-(oxolan-3-yloxy)pyridazin-4-yl]amino}pyridin-2-yl)-3-(4-methylpiperazin-1-yl)cyclobutane-1-carboxamide], the Ki was 0.126 to 0.316 nM.

Turning to `Cc1oc(=O)oc1CSc1nnc(-c2cc(Cl)ccc2F)cc1Nc1ccnc(NC(=O)CCN2CCN(C)CC2)c1` [Example 190, N-(4-{[6-(5-chloro-2-fluorophenyl)-3-{[(5-methyl-2-oxo-2H-1,3-dioxol-4-yl)methyl]sulfanyl}pyridazin-4-yl]amino}pyridin-2-yl)-3-(4-methylpiperazin-1-yl)propanamide], the Ki is at most 0.1 nM.

In the case of `COc1nnc(-c2cc(Cl)ccc2F)cc1Nc1ccnc(N)c1` [Example 48, N4-[6-(5-chloro-2-fluorophenyl)-3-methoxypyridazin-4-yl]pyridine-2,4-diamine], the Ki is 0.126 to 0.316 nM.

With `CN1CCCN(CC(=O)Nc2cc(Nc3cc(-c4cc(Cl)ccc4F)nnc3OC3CCOC3)ccn2)CC1` (single isomer, unassigned) [Example 73, N-(4-{[6-(5-chloro-2-fluorophenyl)-3-(oxolan-3-yloxy)pyridazin-4-yl]amino}pyridin-2-yl)-2-(4-methyl-1,4-diazepan-1-yl)acetamide], the Ki is at most 0.1 nM.

As to `CN1CCN(CCC(=O)Nc2cc(Nc3cc(-c4cc(Cl)ccc4F)nnc3N3CCC3C(=O)O)ccn2)CC1` (stereo not shown) [Example 151, ammonium 1-[6-(5-chloro-2-fluorophenyl)-4-({2-[3-(4-methylpiperazin-1-yl)propanamido]pyridin-4-yl}amino)pyridazin-3-yl]azetidine-2-carboxylate], the Ki was 0.398 to 3.16 nM.

As for `O=C(Nc1cc(Nc2cc(-c3cc(Cl)ccc3F)nnc2SCCO)ccn1)C1CC(N2CCC(F)(F)C(CO)C2)C1` (racemic) [Example 170, N-(4-{[6-(5-chloro-2-fluorophenyl)-3-[(2-hydroxyethyl)sulfanyl]pyridazin-4-yl]amino}pyridin-2-yl)-3-[4,4-difluoro-3-(hydroxymethyl)piperidin-1-yl]cyclobutane-1-carboxamide], the Ki is at most 0.1 nM.

As for `CN1CCN(CCOc2nnc(-c3cc(Cl)ccc3F)cc2Nc2ccnc(NC(=O)C3CC3)c2)CC1` [Example 36, N-(4-{[6-(5-chloro-2-fluorophenyl)-3-[2-(4-methylpiperazin-1-yl)ethoxy]pyridazin-4-yl]amino}pyridin-2-yl)cyclopropanecarboxamide], the Ki was at most 0.1 nM.

In the case of `C[C@@H]1CN(CCC(=O)Nc2cc(Nc3cc(-c4cc(Cl)ccc4F)nnc3N(C)CC3(C)CCOC3=O)ncn2)C[C@H](C)N1` (single isomer, unassigned) [Example 198, N-(6-{[6-(5-chloro-2-fluorophenyl)-3-{methyl[(3-methyl-2-oxooxolan-3-yl)methyl]amino}pyridazin-4-yl]amino}pyrimidin-4-yl)-3-(3,5-dimethylpiperazin-1-yl)propanamide], the Ki is at most 0.1 nM.

On to `CSc1nnc(-c2cc(Cl)ccc2F)cc1Nc1ccnc(NC(=O)CCN2CCN(C)CC2)c1` [Example 16, N-(4-{[6-(5-chloro-2-fluorophenyl)-3-(methylsulfanyl)pyridazin-4-yl]amino}pyridin-2-yl)-3-(4-methylpiperazin-1-yl)propanamide], for which the Ki was at most 0.1 nM.

In the case of `CN1CCN(CCC(=O)Nc2cc(Nc3cc(-c4cc(Cl)ccc4F)nnc3N(C)CC3(C)CCOC3=O)ncn2)CC1` (single isomer, unassigned; enantiomer 1) [Example 138, Enantiomer 1 N-(6-{[6-(5-chloro-2-fluorophenyl)-3-{methyl[(3-methyl-2-oxooxolan-3-yl)methyl]amino}pyridazin-4-yl]amino}pyrimidin-4-yl)-3-(4-methylpiperazin-1-yl)propanamide], the Ki is at most 0.1 nM.

Take `CN1CCN(CCC(=O)Nc2cc(Nc3cc(-c4cc(Cl)ccc4F)nnc3SCC(O)CO)ccn2)CC1` (stereo not shown) [Example 86, N-(4-{[6-(5-chloro-2-fluorophenyl)-3-[(2,3-dihydroxypropyl)sulfanyl]pyridazin-4-yl]amino}pyridin-2-yl)-3-(4-methylpiperazin-1-yl)propanamide]: the Ki was at most 0.1 nM.

For the molecule `CN1CCN([C@@H]2CC[C@@H](C(=O)Nc3cc(Nc4cc(-c5cc(Cl)ccc5F)nnc4SCCO)ccn3)C2)CC1` (single isomer, unassigned; enantiomer 1) [Example 189, Trans Enantiomer 1 N-(4-{[6-(5-chloro-2-fluorophenyl)-3-[(2-hydroxyethyl)sulfanyl]pyridazin-4-yl]amino}pyridin-2-yl)-3-(4-methylpiperazin-1-yl)cyclopentane-1-carboxamide], the Ki is at most 0.1 nM.

On to `COCCOc1nnc(-c2cc(Cl)ccc2F)cc1Nc1ccnc(NC(=O)CCN2CCOCC2)c1` [Example 34, N-(4-{[6-(5-chloro-2-fluorophenyl)-3-(2-methoxyethoxy)pyridazin-4-yl]amino}pyridin-2-yl)-3-(morpholin-4-yl)propanamide], for which the Ki was at most 0.1 nM.

Take `CN1CCN([C@@H]2CC[C@H](C(=O)Nc3cc(Nc4cc(-c5cc(Cl)ccc5F)nnc4SCCO)ccn3)C2)CC1` (single isomer, unassigned; enantiomer 1) [Example 188, Cis Enantiomer 1 N-(4-{[6-(5-chloro-2-fluorophenyl)-3-[(2-hydroxyethyl)sulfanyl]pyridazin-4-yl]amino}pyridin-2-yl)-3-(4-methylpiperazin-1-yl)cyclopentane-1-carboxamide]: the Ki was at most 0.1 nM.

For the molecule `O=C(CN1CCNCC1)Nc1cc(Nc2cc(-c3cc(Cl)ccc3F)nnc2SCCO)ccn1` [Example 60, N-(4-{[6-(5-chloro-2-fluorophenyl)-3-[(2-hydroxyethyl)sulfanyl]pyridazin-4-yl]amino}pyridin-2-yl)-2-(piperazin-1-yl)acetamide], the Ki was at most 0.1 nM.

In the case of `COC(=O)C1CN(c2nnc(-c3cc(Cl)ccc3F)cc2Nc2ccnc(NC(=O)CCN3CCN(C)CC3)c2)C1` [Example 98, methyl 1-[6-(5-chloro-2-fluorophenyl)-4-({2-[3-(4-methylpiperazin-1-yl)propanamido]pyridin-4-yl}amino)pyridazin-3-yl]azetidine-3-carboxylate], the Ki is 0.126 to 0.316 nM.

Turning to `CN1CCN(CCC(=O)Nc2cc(Nc3cc(-c4cc(Cl)ccc4F)nnc3N(C)Cc3cccc(O)c3)ccn2)CC1` [Example 102, N-(4-{[6-(5-chloro-2-fluorophenyl)-3-{[(3-hydroxyphenyl)methyl](methyl)amino}pyridazin-4-yl]amino}pyridin-2-yl)-3-(4-methylpiperazin-1-yl)propanamide], the Ki is 0.126 to 0.316 nM.

For orientation: Ki means the dissociation constant of the complex between target and ligand, obtained from inhibition or displacement.
